Results taken from PubChem BioAssay (NCI).
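Values below derive from 48-hour exposures of cells grown in 96-well plates, with endpoints linearly interpolated between the two concentrations bracketing the appropriate inhibition level. At the TGI there is no net growth.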

How the values were obtained:
Assay in all cases: NCI anticancer screen, dose series, 48 h
NCI-H522 lung = system: NCI-H522 lung
U251 CNS = system: U251 CNS
HOP-62 NSCLC = system: HOP-62 NSCLC
CAKI-1 renal = system: CAKI-1 renal
786-0 renal = system: 786-0 renal
HCC-2998 colon = system: HCC-2998 colon
MDA-MB-435 = system: MDA-MB-435
HCT-116 colon = system: HCT-116 colon
NCI-H23 lung = system: NCI-H23 lung
M14 melanoma = system: M14 melanoma
NCI-H460 lung = system: NCI-H460 lung
SK-MEL-5 melanoma = system: SK-MEL-5 melanoma
NCI-H226 lung = system: NCI-H226 lung
COLO 205 colon = system: COLO 205 colon
SK-MEL-28 melanoma = system: SK-MEL-28 melanoma
BT-549 breast = system: BT-549 breast
OVCAR-4 ovarian = system: OVCAR-4 ovarian
SNB-75 CNS = system: SNB-75 CNS
MOLT-4 leukemia = system: MOLT-4 leukemia
DU-145 prostate = system: DU-145 prostate
SF-539 CNS = system: SF-539 CNS
LOX IMVI melanoma = system: LOX IMVI melanoma
SNB-19 CNS = system: SNB-19 CNS
SN12C renal = system: SN12C renal
SK-MEL-2 melanoma = system: SK-MEL-2 melanoma
MCF7 breast = system: MCF7 breast
UO-31 renal = system: UO-31 renal
UACC-62 melanoma = system: UACC-62 melanoma
T-47D breast = system: T-47D breast
A549 NSCLC = system: A549 NSCLC
SK-OV-3 ovarian = system: SK-OV-3 ovarian
OVCAR-3 ovarian = system: OVCAR-3 ovarian
SW-620 colon = system: SW-620 colon
ACHN renal = system: ACHN renal
HOP-92 NSCLC = system: HOP-92 NSCLC
OVCAR-5 ovarian = system: OVCAR-5 ovarian
SF-268 CNS = system: SF-268 CNS
PC-3 prostate = system: PC-3 prostate
TK-10 renal = system: TK-10 renal
RXF 393 renal = system: RXF 393 renal
MALME-3M melanoma = system: MALME-3M melanoma
HCT-15 colon = system: HCT-15 colon
NCI/ADR-RES ovarian = system: NCI/ADR-RES ovarian
UACC-257 melanoma = system: UACC-257 melanoma
HT29 colon = system: HT29 colon
A498 renal = system: A498 renal
MDA-N = system: MDA-N
RPMI-8226 leukemia = system: RPMI-8226 leukemia
KM12 colon = system: KM12 colon
OVCAR-8 ovarian = system: OVCAR-8 ovarian
MDA-MB-231 breast = system: MDA-MB-231 breast
HS 578T breast = system: HS 578T breast
EKVX NSCLC = system: EKVX NSCLC
SF-295 CNS = system: SF-295 CNS
IGROV1 ovarian = system: IGROV1 ovarian
CCRF-CEM leukemia = system: CCRF-CEM leukemia

SMILES: O=C1/C(=C/c2ccccc2)CCCC1CN1CCCCC1 (configuration not stated)
- TGI (NCI-H522 lung): 2.05 µM
- TGI (U251 CNS): 27 µM
- TGI (HOP-62 NSCLC): 35.5 µM
- TGI (CAKI-1 renal): 3.2 µM
- TGI (786-0 renal): 4.26 µM
- TGI (HCC-2998 colon): 29 µM
- TGI (MDA-MB-435): 4.26 µM
- TGI (HCT-116 colon): 3.15 µM
- TGI (NCI-H23 lung): 16.7 µM
- TGI (M14 melanoma): 3.36 µM
- TGI (NCI-H460 lung): 32.4 µM
- TGI (SK-MEL-5 melanoma): 15.6 µM
- TGI (NCI-H226 lung): 9.87 µM
- TGI (COLO 205 colon): 10.4 µM
- TGI (SK-MEL-28 melanoma): 3.77 µM
- TGI (BT-549 breast): 8.91 µM
- TGI (OVCAR-4 ovarian): 3.83 µM
- TGI (SNB-75 CNS): 20.5 µM
- TGI (MOLT-4 leukemia): > 100 µM
- TGI (DU-145 prostate): 27.3 µM
- TGI (SF-539 CNS): 11.7 µM
- TGI (LOX IMVI melanoma): 3.3 µM
- TGI (SNB-19 CNS): 29.1 µM
- TGI (SN12C renal): 18.5 µM
- TGI (SK-MEL-2 melanoma): 15.8 µM
- TGI (MCF7 breast): 1.69 µM
- TGI (UO-31 renal): 3.82 µM
- TGI (UACC-62 melanoma): 19.7 µM
- TGI (T-47D breast): 3.92 µM
- TGI (A549 NSCLC): 34.9 µM
- TGI (SK-OV-3 ovarian): 31 µM
- TGI (OVCAR-3 ovarian): 3.24 µM
- TGI (SW-620 colon): 2.64 µM
- TGI (ACHN renal): 11.8 µM
- TGI (HOP-92 NSCLC): 6.05 µM
- TGI (OVCAR-5 ovarian): 33.8 µM
- TGI (SF-268 CNS): 3.59 µM
- TGI (PC-3 prostate): 24.1 µM
- TGI (TK-10 renal): 8.02 µM
- TGI (RXF 393 renal): 3.76 µM
- TGI (MALME-3M melanoma): 3.97 µM
- TGI (HCT-15 colon): 4.85 µM
- TGI (NCI/ADR-RES ovarian): 13 µM
- TGI (UACC-257 melanoma): 22 µM
- TGI (HT29 colon): 2.98 µM
- TGI (A498 renal): 30.4 µM
- TGI (MDA-N): 4.13 µM
- TGI (RPMI-8226 leukemia): > 100 µM
- TGI (KM12 colon): 2.78 µM
- TGI (OVCAR-8 ovarian): 4.13 µM
- TGI (MDA-MB-231 breast): 3.89 µM
- TGI (HS 578T breast): 16.9 µM
- TGI (EKVX NSCLC): 28.8 µM
- TGI (SF-295 CNS): 33.6 µM
- TGI (IGROV1 ovarian): 8.38 µM

SMILES: CCCCCCCCCCCCNC(C)=O
- TGI (NCI-H522 lung): 27.2 µM
- TGI (U251 CNS): 30.1 µM
- TGI (HOP-62 NSCLC): 28.9 µM
- TGI (CAKI-1 renal): 39.3 µM
- TGI (786-0 renal): 32.5 µM
- TGI (HCC-2998 colon): 37.5 µM
- TGI (MDA-MB-435): 35.4 µM
- TGI (HCT-116 colon): 37 µM
- TGI (NCI-H23 lung): 29.9 µM
- TGI (M14 melanoma): 32.6 µM
- TGI (NCI-H460 lung): 32.7 µM
- TGI (SK-MEL-5 melanoma): 30.4 µM
- TGI (NCI-H226 lung): 35.9 µM
- TGI (COLO 205 colon): 31.6 µM
- TGI (SK-MEL-28 melanoma): 31.4 µM
- TGI (BT-549 breast): 30.8 µM
- TGI (CCRF-CEM leukemia): 32.7 µM
- TGI (SNB-75 CNS): 55.8 µM
- TGI (DU-145 prostate): > 100 µM
- TGI (SF-539 CNS): 29.9 µM
- TGI (LOX IMVI melanoma): 23.1 µM
- TGI (SNB-19 CNS): 31.2 µM
- TGI (SN12C renal): 37 µM
- TGI (SK-MEL-2 melanoma): 28.1 µM
- TGI (MCF7 breast): 32.4 µM
- TGI (UO-31 renal): 46.9 µM
- TGI (UACC-62 melanoma): 30.2 µM
- TGI (T-47D breast): 66.3 µM
- TGI (A549 NSCLC): > 100 µM
- TGI (SK-OV-3 ovarian): 29.1 µM
- TGI (OVCAR-3 ovarian): 40.1 µM
- TGI (SW-620 colon): 30.9 µM
- TGI (ACHN renal): 70 µM
- TGI (HOP-92 NSCLC): 19.2 µM
- TGI (SF-268 CNS): 29.5 µM
- TGI (PC-3 prostate): 28.4 µM
- TGI (TK-10 renal): 31.6 µM
- TGI (RXF 393 renal): 43.4 µM
- TGI (MALME-3M melanoma): 34.5 µM
- TGI (HCT-15 colon): 33.1 µM
- TGI (NCI/ADR-RES ovarian): 33.3 µM
- TGI (UACC-257 melanoma): 63.9 µM
- TGI (HT29 colon): 33.6 µM
- TGI (A498 renal): 68 µM
- TGI (MDA-N): 31 µM
- TGI (RPMI-8226 leukemia): 30.7 µM
- TGI (KM12 colon): 35.7 µM
- TGI (OVCAR-8 ovarian): 44.5 µM
- TGI (MDA-MB-231 breast): 28.6 µM
- TGI (HS 578T breast): 31.1 µM
- TGI (EKVX NSCLC): 25.6 µM
- TGI (SF-295 CNS): 34.4 µM
